The test system of data set [1] is durch Interleukin-2 induzierten T-Zell-Proliferation in menschlichem Blut. Nature of the data set: Inhibition of T-cell proliferation induced by interleukin-2 in human blood (3H-thymidine). It is filed as cell-based, menschlich. The conditions noted are these: 100 Einheiten/ml recombinant interleukin-2, read-out: IC₅₀.
A short description of data set [2]: Solubility in solvents (qualitative). It is filed as physicochemical. From the text:
Hormaomycin ist neutral, löst sich gut in Methanol, Chloroform, Aceton und Essigsäureethylester und ist in Wasser oder Hexan unlöslich. Auf Dünnschichtchromatographie-Platten löscht es UV-Licht (254 nm), färbt sich beim Stehen an der Luft langsam gelb und lässt sich nach Barrollier (blaugrün) und mit Ehrlich's Reagenz (blass violett), nicht jedoch mit Ninhydrin anfärben.

Data set [3] relates to einigen Streptomyceten-Stämmen. Nature of the data set: Increase of antibiotic formation in Streptomyces strains. It is filed as cell-based. The settings on record: lowest effective concentration; read-out: Konzentration, ab der eine Erhöhung der Bildung von Antibiotika bewirkt wird. The procedure:
(§1) Hormaomycin bewirkt bereits in einer Konzentration ab etwa 0,05 µg/ml bei einigen Streptomyceten-Stämmen eine Erhöhung der Bildung von Antibiotika.

Data set [4] concerns Arthrobacter crystallopoietes ATCC 15481. In words: Agar dilution series test, minimal inhibitory concentration. It is filed as cell-based. The conditions noted are these: Crystallibacter crystallopoietes, ATCC15481, in vitro, read-out: Minimale Hemmkonzentration. The procedure: (§2) Hormaomycin zeigt in vitro in einem Agar-Verdünnungsreihentest eine antimikrobielle Wirkung gegen einige Bakterien, z.B. Arthrobacter crystallopoites, Arthrobacter oxydans, Corynebacterium species, Brevibacterium linens und Salmonella typhimurium. Die minimale Hemmkonzentration liegt im Bereich zwischen 0,0001 und 50 µg/ml. Die nachfolgende Tabelle offenbart einige spezifische Beispiele: […]
On the technique in general: Agar dilution tests growth on a series of plates holding different concentrations.

Data set [5] deals with Salmonella typhimurium ATCC 13311. Described as above. It is filed as cell-based. The settings on record: Salmonella enterica, in vitro, read-out: Minimale Hemmkonzentration. The procedure:
as §2

The subject of data set [6] is Corynebacterium sp. ATCC 23830. The data set is described as above. It is filed as cell-based. The settings on record: ATCC23830, in vitro, read-out: Minimale Hemmkonzentration. The procedure:
as §2

Data set [7] has as its system Brevibacterium linens ATCC 9172. Described as above. It counts as cell-based. The conditions noted are these: ATCC9172, in vitro, read-out: Minimale Hemmkonzentration. The procedure: as §2
The test system of data set [8] is Arthrobacter oxydans ATCC 14358. The description is as above. The conditions noted are these: Pseudarthrobacter oxydans, ATCC14358, in vitro, read-out: Minimale Hemmkonzentration. It is filed as cell-based. The procedure:
as §2

Data set [9] relates to Streptomyces griseoflavus (Tü 1306). Nature of the data set: Increase of tirandamycin production in fermentation broth. It is filed as cell-based. The procedure: as §1
Data set [10] deals with Streptomyces griseoflavus (DSM 5195). Nature of the data set: Induction of aerial mycelium on test plates (paper disc on agar). It is filed as cell-based. The conditions noted are these: 1 µg in a paper disc on agar on which no aerial mycelium develops. From the text:
Hormaomycin induziert die Luftmycelbildung von Streptomyces griseoflavus (DSM 5195) und von weiteren Streptomyces-Stämmen. […] Zusätzlich induziert die Substanz die Antibiotikaproduktion in diesen Stämmen.

Data set [11] has as its system durch anti-CD 3 monoklonale Antikörper induzierten T-Zell-Proliferation in menschlichem Blut. Nature of the data set: Inhibition of T-cell proliferation induced by anti-CD 3 monoclonal antibodies in human blood (3H-thymidine). The settings on record: 50 ng/ml anti-CD 3 antibody, 48 h + 16 h 3H-thymidine, read-out: IC₅₀. It is filed as cell-based, menschlich. The procedure:
Hemmung der durch anti-CD 3 monoklonale Antikörper induzierten T-Zell-Proliferation in menschlichem Blut
Venöses menschliches Blut wird mit 10 Einheiten Heparin pro ml versetzt und im Verhältnis 1:6 (v:v) mit RPMI 1640 Medium (Gibco) verdünnt. Nach Zugabe von 50 ng/ml anti-CD 3 monoklonalen Antikörpern (TR 66, IgG1K) werden pro Loch 150 µl verdünntes Blut in eine Lochtiterplatte mit 96 Löchern eingefüllt. Dann werden pro Loch 50 µl einer Verbindung der Formeln I oder III in dem obengenannten RPMI Medium hinzugefügt. Als Referenzverbindungen verwendet man Cyclosporin A (CSA, Sandoz, Basel, Schweiz) oder Prednisolon.
Nach 48 Stunden bei 37°C und einem Gehalt von 7 Volumenprozent CO₂ in der Luft fügt man pro Loch 1.0 µCi ³H-Thymidin in 10 µl RPMI Medium (Amersham: spezifische Aktivität 5 Ci/mMol).
Nach weiteren 16 Stunden werden die Zellen mit einer 96-Loch-Erntemaschine (LKB, Bromma, Schweden) auf Glasfiberfiltern (LKB) geerntet. Nach dem Trocknen der Filter wird ihre Radioaktivität gemessen (Optiscint[LKB], Betaplatten-Scintillations-Zähler [LKB]). Die Ergebnisse werden als Durchschnittswerte der für jedes Loch bei drei verschiedenen Konzentrationen in An- und Abwesenheit der Prüfsubstanzen ermittelten cpm (counts pro Minute) ausgedrückt und die Wirkung der Substanzen wird als prozentuale Hemmung angegeben, welche folgendermassen definiert ist: [formula] […]

Molecules are shown by their SMILES. Converted amounts (≈) assume the structure as drawn.

`C/C=C\C1CC2C(=O)OC(C)C(NC(=O)C(CC3CC3[N+](=O)[O-])NC(=O)c3ccc(Cl)n3O)C(=O)NC(C(C)c3ccccc3)C(=O)NC(CC3CC3[N+](=O)[O-])C(=O)NC(C(C)c3ccccc3)C(=O)NC(C(C)CC)C(=O)N2C1` (stereo not shown) [Hormaomycin]: the IC50 in [1] was 4 to 40 µM; in [11] it was 1.5 to 15 µM. The Löslichkeit result in [2] (in Methanol, Chloroform, Aceton und Essigsäureethylester) is reported as “löst sich gut”; in data set [2] (in Wasser oder Hexan) it was “unlöslich”. In addition, in [3], the minimal effective concentration was ~0.05 µg/mL. The MIC in data set [4] came to 0.0001 µg/mL (≈ 0.0885 nM); in data set [5], 50 µg/mL (≈ 44300 nM); in data set [6] it was 0.1 µg/mL (≈ 88.5 nM); in data set [7], 10 µg/mL (≈ 8850 nM); in data set [8], 0.0005 µg/mL (≈ 0.443 nM). Further, the figures for the “Produktion des Antibiotikums Tirandamycin” value in data set [9] (Hormaomycin 0,05 µg/ml added to fermentation broth) and in data set [9] (Hormaomycin 1 µg/ml added to fermentation broth) were “Verdoppelung” and “ungefähre Vervierfachung”, respectively. Also, the Luftmycelbildung result in data set [10] is listed as “reichliche Luftmycelbildung”.
